Laboratory results taken from patent US11999700B1, “[4,4-bis(4-nitrophenyl)-2,5-dioxoimidazolidin-1-yl]acetic acid as an antimicrobial compound” (KING FAISAL UNIVERSITY, priority 2023, dated 2024).

What was measured:
Assay type in all cases: cell-based
Staphylococcus Aereus = assay: Antimicrobial testing by agar dilution, St. Aereus; settings: after 10, 20, 40 and 60 minutes at all dilutions 1:100, 1:200, 1:400, 1:800
Experimental: (§1) The antimicrobial properties of the [4,4-bis(4-nitrophenyl)-2,5-dioxoimidazolidin-1-yl]acetic acid were studied by the method of agar dilution. Test solutions of each compound was prepared in concentration of 1% using dimethylformamide as a solvent then they are diluted in physiological solution to obtain the final experimental dilutions 1:100, 1:200, 1:400, 1:800. The effect of these substances are compared with furacillin in a controlable study. The testing microbes used were gram positive bacteria Staphylococcus Aereus, gram negative bacteria Escherichia Coli, Pseudomonas aeruginosa and Candida albicans fungi were taken.
(§2) The experiments used for this survey were meat-pentonlu agar (EPA) for cultivation of bacteria and Saburo environment for fungi. Each experiment used 1 ml of test solution on each plate 500 min. Add 2 drops of emulsified with microbes feel. All experimental samples were taken from the agar after 10, 20, 40, 60 minutes in the environment on the basis of Patrk planted. Bacteria were cultivated at a temperature of 37° C. for 1 day and the mushroom was kept in a thermostat for […] at a temperature of 28° C. in the. Then results were checked.

Escherichia Coli = assay: Antimicrobial testing by agar dilution, E. Coli; settings: after 10, 20, 40 and 60 minutes at all dilutions 1:100, 1:200, 1:400, 1:800
Experimental: as §1, §2

Pseudomonas aeruginosa = assay: Antimicrobial testing by agar dilution, Ps. aeruginosa; settings: after 10, 20, 40 and 60 minutes at all dilutions 1:100, 1:200, 1:400, 1:800
Experimental: as §1, §2

Candida albicans = assay: Antimicrobial testing by agar dilution, Candida albicans; settings: Candida albicans fungi, after 10, 20, 40 and 60 minutes at all dilutions 1:100, 1:200, 1:400, 1:800
Experimental: as §1, §2

Measured: inhibition activity

O=C(O)CN1C(=O)NC(c2ccc([N+](=O)[O-])cc2)(c2ccc([N+](=O)[O-])cc2)C1=O [[4,4-bis(4-nitrophenyl)-2,5-dioxoimidazolidin-1-yl]acetic acid]
higher inhibition activity: all assays above
